Laboratory results as given in patent US6737383B1, “Herbicidal oxadiazolidines” (priority 1999, dated 2004).

Legend:
cocklebur = test: Test B pre/postemergence cocklebur; assay type: in vivo, Xanthium strumarium
Outline: (§1)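 Response is a visual 0-to-10 score relative to untreated plants, where 0 means no effect and 10 means complete control, taken twelve to sixteen days after application. Treatments went onto soil at planting and onto foliage of 1- to 4-leaf plants, using a surfactant-containing non-phytotoxic solvent.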

giant foxtail = test: Test B pre/postemergence giant foxtail; assay type: in vivo, Setaria faberii
Outline: as §1

surinam grass = test: Test B pre/postemergence surinam grass; assay type: in vivo, Brachiaria decumbens
Outline: as §1

rape = test: Test B pre/postemergence rape; assay type: in vivo, Brassica napus
Outline: as §1

pigweed = test: Test B pre/postemergence pigweed; assay type: in vivo, Amaranthus retroflexus
Outline: as §1

soybean = test: Test B pre/postemergence soybean; assay type: in vivo, Glycine max
Outline: as §1

crabgrass = test: Test B pre/postemergence crabgrass; assay type: in vivo, Digitaria sanguinalis
Outline: as §1

duck salad = test: Test B flood test duck salad; assay type: in vivo, Heteranthera limosa
Outline: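 Read-out is a visual response score from 0 (no effect) to 10 (complete control), assigned by comparison with untreated controls. Treatment was applied at the 2-leaf stage, and plants stayed in the greenhouse for twelve to sixteen days before scoring.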

purple nutsedge = test: Test B pre/postemergence purple nutsedge; assay type: in vivo, Cyperus rotundus
Outline: as §1

velvetleaf = test: Test B pre/postemergence velvetleaf; assay type: in vivo, Abutilon theophrasti
Outline: as §1

morningglory = test: Test B pre/postemergence morningglory; assay type: in vivo, Ipomoea hederacea
Outline: as §1

corn = test: Test B pre/postemergence corn; assay type: in vivo, Zea mays
Outline: as §1

sugar beet = test: Test B pre/postemergence sugar beet; assay type: in vivo, Beta vulgaris
Outline: as §1

wheat = test: Test B pre/postemergence wheat; assay type: in vivo, Triticum aestivum
Outline: as §1

bedstraw = test: Test B pre/postemergence bedstraw; assay type: in vivo, Galium aparine
Outline: as §1

[1] = Postemergence, Rate 125 g/ha, scale of 0 to 10 where 0 is no effect and 10 is complete control
[2] = Preemergence, Rate 62 g/ha, scale 0 to 10 (0 no effect, 10 complete control)
[3] = Preemergence, Rate 125 g/ha, 0 is no effect, 10 is complete control
[4] = Preemergence, Rate 250 g/ha, scale 0 to 10, 0 is no effect, 10 is complete control
[5] = Preemergence, Rate 500 g/ha, scale 0 to 10 (0 no effect, 10 complete control)
[6] = Rate 62 g/ha, Postemergence, scale of 0 to 10 where 0 is no effect and 10 is complete control
[7] = Rate 250 g/ha, Postemergence, scale 0 to 10, 0 is no effect, 10 is complete control
[8] = Rate 500 g/ha, Postemergence, scale 0 to 10

CC(C)c1noc(C(C)C)c1-n1c(=O)on(C(=O)N(c2ccc(F)cc2)C(C)C)c1=O [Compound 135]
Cocklebur plant response rating (cocklebur; [1]): 0
Cocklebur plant response rating (cocklebur; [2]): 0
Cocklebur plant response rating (0 to 10 scale) (cocklebur; [3]): 0
Cocklebur plant response rating (cocklebur; [4]): 0
Cocklebur plant response rating (cocklebur; [5]): 0
Cocklebur plant response rating (cocklebur; [6]): 0
Plant response rating, Cocklebur (cocklebur; [7]): 0
Cocklebur plant response rating (cocklebur; [8]): 0
Giant foxtail plant response rating (giant foxtail; [1]): 0
Giant foxtail plant response rating (giant foxtail; [2]): 0
Giant foxtail plant response rating (0 to 10 scale) (giant foxtail; [3]): 0
Giant foxtail plant response rating (giant foxtail; [4]): 0
Giant foxtail plant response rating (giant foxtail; [6]): 0
Plant response rating, Giant foxtail (giant foxtail; [7]): 0
Giant foxtail plant response rating (giant foxtail; [8]): 0
B. signalgrass plant response rating (surinam grass; [1]): 0
B. signalgrass plant response rating (surinam grass; [2]): 0
B. signalgrass plant response rating (0 to 10 scale) (surinam grass; [3]): 0
B. signalgrass plant response rating (surinam grass; [4]): 3
B. signalgrass plant response rating (surinam grass; [5]): 4
B. signalgrass plant response rating (surinam grass; [6]): 0
Plant response rating, B. signalgrass (surinam grass; [7]): 0
B. signalgrass plant response rating (surinam grass; Rate 500 g/ha, Postemergence, scale of 0 to 10 where 0 is no effect and 10 is complete control): 0
Rape plant response rating (rape; [1]): 0
Rape plant response rating (rape; [2]): 0
Rape plant response rating (0 to 10 scale) (rape; [3]): 0
Rape plant response rating (rape; [4]): 0
Rape plant response rating (rape; [5]): 0
Rape plant response rating (rape; [6]): 0
Plant response rating, Rape (rape; [7]): 0
Rape plant response rating (rape; [8]): 0
Redroot pigweed plant response rating (pigweed; [1]): 0
Redroot pigweed plant response rating (0 to 10 scale) (pigweed; [3]): 3
Redroot pigweed plant response rating (pigweed; [4]): 4
Redroot pigweed plant response rating (pigweed; [5]): 4
Redroot pigweed plant response rating (pigweed; [6]): 0
Plant response rating, Redroot pigweed (pigweed; [7]): 0
Redroot pigweed plant response rating (pigweed; [8]): 0
Soybean plant response rating (soybean; [1]): 2
Soybean plant response rating (soybean; [2]): 0
Soybean plant response rating (0 to 10 scale) (soybean; [3]): 0
Soybean plant response rating (soybean; [4]): 0
Soybean plant response rating (soybean; [5]): 0
Soybean plant response rating (soybean; [6]): 2
Plant response rating, Soybean (soybean; [7]): 3
Soybean plant response rating (soybean; [8]): 3
Crabgrass plant response rating (crabgrass; [1]): 0
Crabgrass plant response rating (crabgrass; [2]): 0
Crabgrass plant response rating (0 to 10 scale) (crabgrass; [3]): 0
Crabgrass plant response rating (crabgrass; [4]): 0
Crabgrass plant response rating (crabgrass; [5]): 4
Crabgrass plant response rating (crabgrass; [6]): 0
Plant response rating, Crabgrass (crabgrass; [7]): 0
Ducksalad plant response rating (duck salad; Postemergence (flood test species), Rate 125 g/ha, scale of 0 to 10 where 0 is no effect and 10 is complete control): 0
Ducksalad plant response rating (duck salad; Rate 62 g/ha, Postemergence section, flood test species, scale of 0 to 10 where 0 is no effect and 10 is complete control): 0
Plant response rating, Ducksalad (duck salad; Rate 250 g/ha, Postemergence (flood test), scale 0 to 10, 0 is no effect, 10 is complete control): 0
Ducksalad plant response rating (duck salad; Rate 500 g/ha, listed under Postemergence (flood test species), scale 0 to 10): 0
Nutsedge plant response rating (purple nutsedge; [1]): 0
Nutsedge plant response rating (purple nutsedge; [2]): 0
Nutsedge plant response rating (0 to 10 scale) (purple nutsedge; [3]): 0
Nutsedge plant response rating (purple nutsedge; [4]): 0
Nutsedge plant response rating (purple nutsedge; [5]): 0
Nutsedge plant response rating (purple nutsedge; [6]): 0
Plant response rating, Nutsedge (purple nutsedge; [7]): 0
Nutsedge plant response rating (purple nutsedge; [8]): 0
Velvetleaf plant response rating (velvetleaf; [1]): 0
Velvetleaf plant response rating (velvetleaf; [2]): 0
Velvetleaf plant response rating (0 to 10 scale) (velvetleaf; [3]): 0
Velvetleaf plant response rating (velvetleaf; [4]): 0
Velvetleaf plant response rating (velvetleaf; [5]): 0
Velvetleaf plant response rating (velvetleaf; [6]): 0
Plant response rating, Velvetleaf (velvetleaf; [7]): 0
Velvetleaf plant response rating (velvetleaf; [8]): 0
Morningglory plant response rating (morningglory; [1]): 1
Morningglory plant response rating (morningglory; [2]): 0
Morningglory plant response rating (0 to 10 scale) (morningglory; [3]): 0
Morningglory plant response rating (morningglory; [4]): 0
Morningglory plant response rating (morningglory; [5]): 0
Morningglory plant response rating (morningglory; [6]): 0
Plant response rating, Morningglory (morningglory; [7]): 1
Morningglory plant response rating (morningglory; [8]): 1
Corn plant response rating (corn; [1]): 0
Corn plant response rating (corn; [2]): 0
Corn plant response rating (0 to 10 scale) (corn; [3]): 0
Corn plant response rating (corn; [4]): 0
Corn plant response rating (corn; [5]): 0
Corn plant response rating (corn; [6]): 0
Plant response rating, Corn (corn; [7]): 0
Corn plant response rating (corn; [8]): 0
Sugarbeets plant response rating (sugar beet; [1]): 0
Sugarbeets plant response rating (sugar beet; [2]): 0
Sugarbeets plant response rating (0 to 10 scale) (sugar beet; [3]): 0
Sugarbeets plant response rating (sugar beet; [4]): 0
Sugarbeets plant response rating (sugar beet; [5]): 0
Sugarbeets plant response rating (sugar beet; [6]): 0
Plant response rating, Sugarbeets (sugar beet; [7]): 0
Sugarbeets plant response rating (sugar beet; [8]): 0
Wheat plant response rating (wheat; [1]): 0
Wheat plant response rating (wheat; [2]): 0
Wheat plant response rating (0 to 10 scale) (wheat; [3]): 0
Wheat plant response rating (wheat; [4]): 0
Wheat plant response rating (wheat; [5]): 0
Wheat plant response rating (wheat; [6]): 0
Plant response rating, Wheat (wheat; [7]): 0
Wheat plant response rating (wheat; [8]): 0
Bedstraw plant response rating (bedstraw; [1]): 0
Bedstraw plant response rating (0 to 10 scale) (bedstraw; [3]): 0
Bedstraw plant response rating (bedstraw; [4]): 0
Bedstraw plant response rating (bedstraw; [5]): 4
Bedstraw plant response rating (bedstraw; [6]): 0
Plant response rating, Bedstraw (bedstraw; [7]): 2
